The values below come from ChEMBL document CHEMBL1142196, “Leishmania donovani polyamine biosynthetic enzyme overproducers as tools to investigate the mode of action of cytotoxic polyamine analogs” (Antimicrob Agents Chemother, 2007).

The test system of test [1] is Leishmania donovani. Briefly: Antiproliferative activity against Leishmania donovani DI700 promastigotes. It is filed as functional, organism-based.
Test [2] relates to Leishmania donovani. Description: Antiproliferative activity against Leishmania donovani DI700 promastigotes overproducing ODC enzyme. Type of test: functional, organism-based.
In test [3] the test system is Leishmania donovani. Description: Antiproliferative activity against Leishmania donovani DI700 promastigotes overproducing SPDSYN enzyme. It is filed as functional, organism-based.
Test [4] relates to Leishmania donovani. Description: Antiproliferative activity against Leishmania donovani DI700 promastigotes overproducing ADOMETDC enzyme. It is filed as functional, organism-based.
In test [5] the test system is Leishmania donovani. Briefly: Antiproliferative activity against Leishmania donovani DI700 promastigotes in presence of 100 uM putrescine. It is filed as functional, organism-based.
Test [6] concerns Leishmania donovani. Briefly: Antiproliferative activity against Leishmania donovani DI700 promastigotes in presence of 100 uM spermidine. It is filed as functional, organism-based.
For test [7], the system named is Leishmania donovani. Briefly: Growth of Leishmania donovani DI700 promastigotes at 100 uM relative to control.

pEC50: −log10 of the molar value. Calls of active or inactive are those of the source. No cut-off for these calls is given here.

What is called pEC50 is −log10 of the EC50, conventionally taken in molar units. Regarding `NCCC[C@](N)(C(=O)O)C(F)F` [EFLORNITHINE, (S)-], the pEC50 in test [1] was 4.40; in test [2] it was below 3.00; in test [3], 4.40; in test [4], 4.52; in test [5], below 3.00; in test [6], 3.89.
With `CCNCCCCNCCCCNCCCCNCCCCNCCCCNCCCCNC/C=C/CNCCCCNCCCCNCCCCNCCCCNCCCCNCCCCNCC`, in test [1], the pEC50 is 5.19. Also, the growth, % of control at 100 µM in test [7] was found to be 7.9%.
Turning to `CCNC/C=C\CNCCCCNCCCCNCCCCNCC`, the outcome in test [1] was inactive. Also, the growth, % of control at 100 µM in test [7] came to 83.2%.
The matching figures for `CCNCCCCNC/C=C\CNCCCCNCCCCNCC`: “inactive” and 96.2%.
The matching figures for `CCNCCCCNCCCCNCCCCNCCCCN(CC)CCCCNCCCCNCCCCNCCCCNCC`: “inactive” and 102%.
On to `CC(/C=N/NC(=N)N)=N\NC(=N)N` [MITOGUAZONE], for which the pEC50 in test [1] is 2.74; in test [2], 2.66; in test [3], 2.85; in test [4], 2.82; in test [5], 2.59; in test [6], 2.74.
As to `CCNCCCCNCCCCNCCCCNCCCCNCCCCNCCCCNCCCCNCC`, the outcome in test [1] was inactive. In addition, in test [7], the growth, % of control at 100 µM stood at 99.2%.
Take `CCNCCCCNCC1CCC1CNCCCCNCC` (stereo not given): in test [1], the result was inactive. The growth, % of control at 100 µM in test [7] was determined as 92.8%.
The matching figures for `CCNCCCCNCCCCNCCCCNCCCCNCC1CC1CNCCCCNCCCCNCCCCNCCCCNCC` (stereo not given): “inactive” and 73%.
The matching figures for `CCNCCCCNCCCCNCCCCNC/C=C/CNCCCCNCCCCNCCCCNCC`: “inactive” and 85.5%.
As to `N=C(N)c1ccc(/N=N/Nc2ccc(C(=N)N)cc2)cc1` [DIMINAZENE], the pEC50 in test [1] was 5.02; in test [2] it was 5.06; in test [3], 5.10; in test [4], 5.01; in test [5], 5.21; in test [6] it was 5.01.
Regarding `CCNC/C=C\CNCCCCNC/C=C\CNCC`, the outcome in test [1] was inactive. This compound registered a growth, % of control at 100 µM in test [7] of 128%.
Consider `CCCCN` [BUTYLAMINE], for which the pEC50 was 3.40 in test [1]; 2.68 in test [2]; 2.48 in test [3]; 3.70 in test [4]; 2.70 in test [5]; below 2.00 in test [6].
Regarding `CCNCCCCNCC1CC1CNCCCCNCC` (stereo not given), the outcome in test [1] was inactive. The growth, % of control at 100 µM in test [7] was 81.4%.
The matching figures for `CCCCCCCCCCCCCC1CCN(CCCN)CCCN(C)CCCCN(C)CCCCN1C` (stereo not given): “inactive” and 98.3%.
As for `CN(C/C=C\CN)C[C@H]1O[C@@H](n2cnc3c(N)ncnc32)[C@H](O)[C@@H]1O`, the pEC50 in test [1] is 4.40; in test [2] it was 2.57; in test [3] it was 3.70; in test [4], below 2.00; in test [5], 3.10; in test [6], below 2.00.
Consider `CCNCCCNCC1CC1CNCCCNCC` (stereo not given), for which the outcome in test [1] was inactive. The growth, % of control at 100 µM in test [7] stood at 106%.
On to `CCNCCCCNCCCCNCCCCNCCCCNCCCCNCCCCNCCCCNCCCCNCCCCNCC`, for which the pEC50 in test [1] was 5.05; in test [2] it was 5.05; in test [3] it was 4.30. The growth, % of control at 100 µM in test [7] was found to be 62.6%.
In the case of `CCNCCCCNCCCCNCCCCNC/C=C\CNCCCCNCCCCNCCCCNCC`, in test [1], the result was inactive. Moreover, in test [7], the growth, % of control at 100 µM was 97.2%.
The matching figures for `CCNCCCCNCCCCNCCCCNCCCCNC/C=C\CNCCCCNCCCCNCCCCNCCCCNCC`: “inactive” and 25.7%.
`CCCCCCCCCCCCCC1CCN(CCCNC(=O)CCC2=C(C)c3cc4[nH]c(cc5nc(cc6[nH]c(cc2n3)c(CCC(=O)NCCCN2CCCN(C)CCCCN(C)CCCN(C)C(CCCCCCCCCCCCC)CC2)c6C)C(CC)=C5C)c(CC)c4C)CCCN(C)CCCCN(C)CCCN1C` (stereo not given) gave a pEC50 in test [1] of 4.30. For the same compound, the growth, % of control at 100 µM in test [7] came out at 1.7%.
As for `N=C(N)c1ccc(OCCCCCOc2ccc(C(=N)N)cc2)cc1` [PENTAMIDINE], the pEC50 in test [1] is 5.72; in test [2], 5.59; in test [3], 5.77; in test [4] it was 5.77; in test [5] it was 5.72; in test [6] it was 5.70.
In test [1], `CCNCCCCNCCCCNCCCCNCCCCNCCCCNCCCCNCCCCNCCCCNCCCCNCCCCNCCCCNCCCCNCCCCNCC` gave a pEC50 of 5.05. In test [7], this compound gave a growth, % of control at 100 µM of 8.9%.
Regarding `CCNCCCCNCCCCNCCCCNCCCCNC/C=C/CNCCCCNCCCCNCCCCNCCCCNCC`, the outcome in test [1] was inactive. This compound yielded a growth, % of control at 100 µM in test [7] of 62.4%.
In the case of `CCNCCCCNCCCCNCCCCNCCCCNCCCCNCCCCNCCCCNCCCCNCCCCN(CC)C(=O)CCC1=C(C)c2cc3[nH]c(cc4nc(cc5[nH]c(cc1n2)c(CCC(=O)N(CC)CCCCNCCCCNCCCCNCCCCNCCCCNCCCCNCCCCNCCCCNCCCCNCC)c5C)C(S(=O)(=O)O)=C4C)c(S(=O)(=O)O)c3C`, in test [1], the pEC50 is 6.15. Also, the growth, % of control at 100 µM in test [7] is 1.1%.
Take `CCNCCCCNCCCCNCCCCNCCCCNCCCCNC/C=C/CNCCCCNCCCCNCCCCNCCCCNCCCCNCC`: the outcome in test [1] was inactive. In test [7], the growth, % of control at 100 µM came to 7.5%.
The matching figures for `CCNC/C=C\CNC/C=C\CNC/C=C\CNCC`: “inactive” and 104%.
`CCNCCCCNCCCCNCCCCNCCCCNCCCCNCCCCNCCCCNCCCCNCCCCN(CC)C(=O)CCC1=C(C)c2cc3[nH]c(cc4nc(cc5[nH]c(cc1n2)c(CCC(=O)N(CC)CCCCNCCCCNCCCCNCCCCNCCCCNCCCCNCCCCNCCCCNCCCCNCC)c5C)C(CC)=C4C)c(CC)c3C` showed a pEC50 in test [1] of 6.30. The same compound gave a growth, % of control at 100 µM in test [7] of 2.2%.
`CCNCCCCNCC1CC1CNCCCCN(CC)C(=O)CCC1=C(C)c2cc3[nH]c(cc4nc(cc5[nH]c(cc1n2)c(CCC(=O)N(CC)CCCCNCC1CC1CNCCCCNCC)c5C)C(CC)=C4C)c(CC)c3C` (stereo not given): in test [1], the outcome was inactive. In addition, the growth, % of control at 100 µM in test [7] was 1.3%.
The matching figures for `CCNCCCCNCC1CC1CNCCCCNCC1CC1CNCCCCNCC` (stereo not given): “inactive” and 118%.
On to `CCNCCCCNCCCCNCCCCNCCCCNCCCCNCCCCNCCCCNCCCCNCCCCNCCCCNCCCCNCC`, for which the pEC50 was 6.40 in test [1], 5.26 in test [2] and 6.30 in test [3]. In addition, the growth, % of control at 100 µM in test [7] was 8.4%.
